Measured values published in patent US10392368B2, “Pyrazolo and triazolo bicyclic compounds as JAK kinase inhibitors” (THERAVANCE BIOPHARMA R&D IP, LLC, priority 2017, dated 2019).
Where two headings read alike, the source gives them in different places.

What was measured:
Tyk2 = target: T1, Tyk2 (Homo sapiens, UniProt P29597); test: Biochemical Tyk2 kinase assay (LanthaScreen); settings: for Ki: read-out: Tyk 2 (pKi) (converted)
T1 construct: GST; purchased Life Technologies
How it was run: (§1)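 GST-tagged JAK enzyme and GFP-STAT1 peptide preincubated with compound 1 h, then ATP added; 1 h kinase reaction at ambient temperature, pH 7.5 HEPES/MgCl2 buffer, 1% DMSO. Tb-anti-pSTAT1 (pTyr701) TR-FRET, 520/495 nm ratio; IC50 from 4-parameter fit, converted to pKi via Cheng-Prusoff.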

JAK1 = target: T2, JAK1 (Homo sapiens, UniProt P23458); test: Biochemical JAK1 kinase assay (LanthaScreen); settings: for Ki: read-out: JAK 1 (pKi) (converted)
T2 construct: GST; purchased Life Technologies
T2 sequence (P23458 whole entry): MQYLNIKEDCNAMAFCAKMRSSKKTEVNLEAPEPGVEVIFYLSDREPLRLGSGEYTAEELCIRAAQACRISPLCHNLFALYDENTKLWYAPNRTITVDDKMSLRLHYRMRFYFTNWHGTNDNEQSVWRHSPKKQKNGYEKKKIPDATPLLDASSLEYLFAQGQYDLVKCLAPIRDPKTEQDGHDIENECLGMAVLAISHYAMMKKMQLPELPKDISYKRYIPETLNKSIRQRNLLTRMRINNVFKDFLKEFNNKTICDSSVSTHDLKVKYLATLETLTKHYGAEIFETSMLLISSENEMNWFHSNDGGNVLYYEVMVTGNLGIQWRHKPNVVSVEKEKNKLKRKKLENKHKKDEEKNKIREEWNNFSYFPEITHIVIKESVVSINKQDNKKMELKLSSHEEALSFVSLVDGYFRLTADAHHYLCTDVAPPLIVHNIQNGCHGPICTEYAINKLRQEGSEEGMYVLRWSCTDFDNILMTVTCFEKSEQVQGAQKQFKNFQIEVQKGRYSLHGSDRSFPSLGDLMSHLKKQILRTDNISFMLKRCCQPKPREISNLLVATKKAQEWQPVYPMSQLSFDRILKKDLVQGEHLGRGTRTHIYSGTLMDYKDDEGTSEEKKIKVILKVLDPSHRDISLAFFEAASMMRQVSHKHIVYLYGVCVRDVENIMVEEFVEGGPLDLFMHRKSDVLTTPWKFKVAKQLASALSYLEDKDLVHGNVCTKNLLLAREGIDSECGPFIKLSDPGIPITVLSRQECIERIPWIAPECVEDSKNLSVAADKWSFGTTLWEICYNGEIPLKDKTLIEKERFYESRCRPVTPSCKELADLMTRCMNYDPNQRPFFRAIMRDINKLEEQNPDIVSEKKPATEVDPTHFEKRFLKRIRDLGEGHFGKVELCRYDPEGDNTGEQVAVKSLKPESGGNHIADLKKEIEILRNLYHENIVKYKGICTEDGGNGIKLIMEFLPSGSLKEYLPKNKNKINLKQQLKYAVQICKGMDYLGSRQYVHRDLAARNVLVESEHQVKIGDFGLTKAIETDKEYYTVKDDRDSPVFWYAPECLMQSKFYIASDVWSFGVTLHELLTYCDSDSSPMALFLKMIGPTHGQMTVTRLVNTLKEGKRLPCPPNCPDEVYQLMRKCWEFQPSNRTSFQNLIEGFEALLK
How it was run: as §1

JAK2 = target: T3, JAK2 (Homo sapiens, UniProt O60674); test: Biochemical JAK2 kinase assay (LanthaScreen); settings: for Ki: read-out: JAK 2 (pKi) (converted)
T3 construct: GST; purchased Life Technologies
T3 sequence (O60674 whole entry): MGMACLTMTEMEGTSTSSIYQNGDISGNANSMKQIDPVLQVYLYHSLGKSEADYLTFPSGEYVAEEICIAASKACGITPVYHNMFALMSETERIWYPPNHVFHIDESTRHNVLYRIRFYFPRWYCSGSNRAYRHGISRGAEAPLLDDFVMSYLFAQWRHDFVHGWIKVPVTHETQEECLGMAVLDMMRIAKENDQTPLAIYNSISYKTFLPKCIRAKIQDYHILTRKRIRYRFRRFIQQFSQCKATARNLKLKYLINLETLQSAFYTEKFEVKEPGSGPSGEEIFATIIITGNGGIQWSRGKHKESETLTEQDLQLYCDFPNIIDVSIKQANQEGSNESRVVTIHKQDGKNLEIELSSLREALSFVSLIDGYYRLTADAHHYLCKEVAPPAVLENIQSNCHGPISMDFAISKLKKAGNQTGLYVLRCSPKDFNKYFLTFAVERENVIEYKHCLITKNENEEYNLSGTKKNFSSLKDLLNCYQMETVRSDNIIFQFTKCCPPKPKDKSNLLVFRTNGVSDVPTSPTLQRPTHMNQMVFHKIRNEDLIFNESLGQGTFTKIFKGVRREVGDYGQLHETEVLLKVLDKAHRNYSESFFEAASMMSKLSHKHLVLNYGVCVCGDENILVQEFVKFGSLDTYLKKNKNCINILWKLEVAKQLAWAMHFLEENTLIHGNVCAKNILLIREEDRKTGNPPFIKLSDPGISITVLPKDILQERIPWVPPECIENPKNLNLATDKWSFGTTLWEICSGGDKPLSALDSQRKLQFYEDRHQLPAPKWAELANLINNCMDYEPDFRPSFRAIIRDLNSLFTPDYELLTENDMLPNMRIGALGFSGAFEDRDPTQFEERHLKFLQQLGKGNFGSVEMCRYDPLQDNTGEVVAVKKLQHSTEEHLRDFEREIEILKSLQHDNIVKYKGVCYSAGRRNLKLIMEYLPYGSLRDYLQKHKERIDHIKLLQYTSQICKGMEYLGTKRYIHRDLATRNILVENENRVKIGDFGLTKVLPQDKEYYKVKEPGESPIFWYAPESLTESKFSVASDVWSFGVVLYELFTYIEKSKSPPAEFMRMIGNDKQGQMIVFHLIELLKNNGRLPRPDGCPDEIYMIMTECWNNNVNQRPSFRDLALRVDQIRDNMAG
How it was run: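 GST-tagged recombinant JAK2 pre-incubated 1 h at ambient temperature with compound and GFP-STAT1 peptide in HEPES pH 7.5/MgCl2 buffer, then ATP added for a 1 h reaction with 1% DMSO. TR-FRET read after EDTA and Tb-anti-pSTAT1 (pTyr701) addition; IC50 from 4-parameter fit, converted to pKi by Cheng-Prusoff.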

[1] = system: IL-2 stimulated pSTAT5 in Tall-1 T cells; test: Cellular JAK3 potency assay: inhibition of IL-2 stimulated pSTAT5 in Tall-1 T cells; type: cell-based, human; settings: for IC50: Homo sapiens, read-out: Tall-1 (pIC50) (converted)
How it was run: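 Tall-1 human T cells (45,000/well) in phenol red-free DMEM with 10% FBS were preincubated with compound 1 h at 37 °C, then stimulated with IL-2 (final 300 ng/ml) for 30 min. Lysate pSTAT5 read by AlphaLisa; IC50 from inhibition curves, reported as pIC50 (mean±SD).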

JAK3 = target: T4, JAK3 (Homo sapiens, UniProt P52333); test: Biochemical JAK3 kinase assay (LanthaScreen); parameters: GST; purchased Life Technologies; settings: for Ki: read-out: JAK 3 (pKi) (converted)
T4 sequence (P52333 1-1124): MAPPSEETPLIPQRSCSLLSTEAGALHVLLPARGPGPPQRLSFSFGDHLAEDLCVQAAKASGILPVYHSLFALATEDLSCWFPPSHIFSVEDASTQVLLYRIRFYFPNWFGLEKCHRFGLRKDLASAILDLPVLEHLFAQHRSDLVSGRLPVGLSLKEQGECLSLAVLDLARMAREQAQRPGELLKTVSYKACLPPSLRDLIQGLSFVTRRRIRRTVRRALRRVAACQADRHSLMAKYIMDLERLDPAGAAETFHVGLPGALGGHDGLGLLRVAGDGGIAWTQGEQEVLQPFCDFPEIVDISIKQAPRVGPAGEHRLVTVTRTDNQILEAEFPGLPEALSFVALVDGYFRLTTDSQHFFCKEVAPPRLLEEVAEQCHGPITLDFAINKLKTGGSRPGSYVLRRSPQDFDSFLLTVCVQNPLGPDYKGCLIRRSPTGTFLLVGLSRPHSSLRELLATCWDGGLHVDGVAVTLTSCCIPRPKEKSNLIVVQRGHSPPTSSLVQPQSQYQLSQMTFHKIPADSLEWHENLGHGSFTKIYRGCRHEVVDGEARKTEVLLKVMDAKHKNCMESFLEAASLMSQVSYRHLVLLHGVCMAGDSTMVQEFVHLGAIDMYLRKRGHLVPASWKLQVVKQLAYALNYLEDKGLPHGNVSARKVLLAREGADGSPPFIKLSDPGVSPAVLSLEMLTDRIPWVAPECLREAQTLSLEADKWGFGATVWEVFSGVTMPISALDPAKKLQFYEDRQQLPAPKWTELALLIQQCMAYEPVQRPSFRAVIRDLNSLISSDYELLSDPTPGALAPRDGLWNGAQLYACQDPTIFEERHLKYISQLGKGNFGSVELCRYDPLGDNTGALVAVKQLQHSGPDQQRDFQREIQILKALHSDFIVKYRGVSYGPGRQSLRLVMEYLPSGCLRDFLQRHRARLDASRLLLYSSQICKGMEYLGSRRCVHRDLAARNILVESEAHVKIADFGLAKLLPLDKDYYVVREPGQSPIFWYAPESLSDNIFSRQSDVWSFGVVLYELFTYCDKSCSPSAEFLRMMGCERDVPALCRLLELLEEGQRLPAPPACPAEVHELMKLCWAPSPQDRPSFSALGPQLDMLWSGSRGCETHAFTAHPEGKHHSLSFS
How it was run: as §1

[2] = TALL-1, IL-2 stimulated pSTAT5 in Tall-1 T cells
[3] = selectivity: difference of pKi JAK3 and pKi JAK1
[4] = IL-2 stimulated pSTAT5 in Tall-1 T cells
[5] = IL-2 stimulated pSTAT5, Tall-1 T cells
[6] = selectivity JAK3 over JAK1, difference of pKi
[7] = TALL-1, IL-2 stimulated pSTAT5, Tall-1 T cells

T1 sequence (P29597 whole entry): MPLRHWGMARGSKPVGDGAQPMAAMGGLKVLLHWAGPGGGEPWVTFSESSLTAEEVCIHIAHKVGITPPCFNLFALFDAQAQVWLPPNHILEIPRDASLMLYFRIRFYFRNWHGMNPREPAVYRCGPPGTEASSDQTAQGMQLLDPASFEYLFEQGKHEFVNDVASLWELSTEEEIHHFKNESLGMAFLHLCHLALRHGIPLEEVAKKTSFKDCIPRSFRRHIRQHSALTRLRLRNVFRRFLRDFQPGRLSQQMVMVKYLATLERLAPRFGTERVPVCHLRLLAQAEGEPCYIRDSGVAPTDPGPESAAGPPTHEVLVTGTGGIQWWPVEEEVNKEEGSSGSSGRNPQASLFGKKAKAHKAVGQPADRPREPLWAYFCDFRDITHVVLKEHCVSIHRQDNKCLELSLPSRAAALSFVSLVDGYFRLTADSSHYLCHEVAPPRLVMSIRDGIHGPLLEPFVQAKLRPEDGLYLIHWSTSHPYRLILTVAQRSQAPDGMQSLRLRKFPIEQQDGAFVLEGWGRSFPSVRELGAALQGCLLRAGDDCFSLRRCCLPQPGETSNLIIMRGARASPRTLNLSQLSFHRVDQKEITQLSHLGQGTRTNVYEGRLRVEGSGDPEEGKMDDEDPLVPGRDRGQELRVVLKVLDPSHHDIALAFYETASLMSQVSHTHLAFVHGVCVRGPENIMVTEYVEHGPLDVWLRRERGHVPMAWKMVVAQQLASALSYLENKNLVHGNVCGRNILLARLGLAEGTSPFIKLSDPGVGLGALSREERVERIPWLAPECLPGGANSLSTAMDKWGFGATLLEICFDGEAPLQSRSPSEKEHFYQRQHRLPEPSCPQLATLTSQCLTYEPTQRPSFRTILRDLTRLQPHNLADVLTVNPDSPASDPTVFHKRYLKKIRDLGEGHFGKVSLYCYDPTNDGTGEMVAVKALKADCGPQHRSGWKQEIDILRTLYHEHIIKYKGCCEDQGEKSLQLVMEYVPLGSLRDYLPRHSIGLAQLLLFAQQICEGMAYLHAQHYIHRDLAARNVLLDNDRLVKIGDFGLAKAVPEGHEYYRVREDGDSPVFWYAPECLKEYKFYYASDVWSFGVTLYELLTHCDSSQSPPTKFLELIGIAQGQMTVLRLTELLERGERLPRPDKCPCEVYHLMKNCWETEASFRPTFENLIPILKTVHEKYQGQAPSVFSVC

## CSC1CCN(C/C=C/C(=O)N2CC(COc3cc(-c4ccc(O)cc4)cc4[nH]ncc34)C2)CC1 [Compound 3-131]
Tyk2
  Ki: > 100 nM
JAK1
  Ki: > 100 nM
JAK2
  Ki: 0.1 to 1 nM
[1]; [2]
  IC50: < 31.6 nM
JAK3
  Ki: 0.1 to 1 nM
JAK3; [3]
  JAK3 (pKi)-JAK1 (pKi): B (a value of 2.3 to 3)

## CN(C)C/C=C/C(=O)N1CC(Oc2cc(-c3ccc(O)c(F)c3)cc3[nH]ncc23)(C(F)F)C1 [Compound 5-17]
Tyk2
  Tyk 2 (pKi): E (a pKi value of 7 or below (Ki of 100 nM or above))
JAK1
  JAK 1 (pKi): E (a pKi value of 7 or below (Ki of 100 nM or above))
JAK2
  JAK 2 (pKi): E (a pKi value of 7 or below (Ki of 100 nM or above))
[1]; [4]
  Tall-1 (pIC50): A (a pIC50 value≥7.5 (IC50≤32 nM))
JAK3
  JAK 3 (pKi): B (a pKi value between 9 and 10 (Ki between 1 nM and 0.1 nM))
JAK3; [3]
  JAK3 (pKi)-JAK1 (pKi): A (a value of 3 or above)

## C=C(CN(C)C)C(=O)N1CC(COc2nc(-c3ccc(O)cc3)nc3[nH]ncc23)C1 [Compound 3-112]
Tyk2
  Ki: > 100 nM
JAK1
  Ki: > 100 nM
JAK2
  Ki: > 100 nM
[1]; [2]
  IC50: 31.6 to 200 nM
JAK3
  Ki: 0.1 to 1 nM
JAK3; [3]
  JAK3 (pKi)-JAK1 (pKi): A (a value of 3 or above)

## C=CC(=O)N1CCC(N(C)c2cc(-c3ccc(O)cc3)cc3[nH]ncc23)CC1 [Compound 7-3]
Tyk2
  Tyk 2 (pKi): E (a pKi value of 7 or below (Ki of 100 nM or above))
JAK1
  JAK 1 (pKi): E (a pKi value of 7 or below (Ki of 100 nM or above))
JAK2
  JAK 2 (pKi): E (a pKi value of 7 or below (Ki of 100 nM or above))
[1]; [5]
  Tall-1 (pIC50): B (a pIC50 value between 6.7 (included) and 7.5 (IC50 between 200 nM and 32 nM))
JAK3
  JAK 3 (pKi): B (a pKi value between 9 and 10 (Ki between 1 nM and 0.1 nM))
JAK3; [6]
  JAK3 (pKi)-JAK1 (pKi): A (a value of 3 or above)

## C=CC(=O)N1CCO[C@@H](C(=O)Nc2cc(-c3ccc(O)cc3)nc3[nH]ncc23)C1 [Compound 13-19]
Tyk2
  Tyk 2 (pKi): E (a pKi value of 7 or below (Ki of 100 nM or above))
JAK1
  JAK 1 (pKi): E (a pKi value of 7 or below (Ki of 100 nM or above))
JAK2
  JAK 2 (pKi): E (a pKi value of 7 or below (Ki of 100 nM or above))
[1]; [5]
  Tall-1 (pIC50): B (a pIC50 value between 6.7 (included) and 7.5 (IC50 between 200 nM and 32 nM))
JAK3
  JAK 3 (pKi): A (a pKi value≥10 (Ki≤0.1 nM))
JAK3; [6]
  JAK3 (pKi)-JAK1 (pKi): A (a value of 3 or above)

## C=CC(=O)N1CCO[C@@H](C(=O)Nc2nc(-c3ccc(O)c(F)c3)cc3[nH]ncc23)C1 [Compound 13-21]
Tyk2
  Tyk 2 (pKi): E (a pKi value of 7 or below (Ki of 100 nM or above))
JAK1
  JAK 1 (pKi): E (a pKi value of 7 or below (Ki of 100 nM or above))
JAK2
  JAK 2 (pKi): D (a pKi value between 7 and 8 (Ki between 100 nM and 10 nM))
[1]; [5]
  Tall-1 (pIC50): A (a pIC50 value≥7.5 (IC50≤32 nM))
JAK3
  JAK 3 (pKi): B (a pKi value between 9 and 10 (Ki between 1 nM and 0.1 nM))
JAK3; [6]
  JAK3 (pKi)-JAK1 (pKi): B (a value of 2.3 to 3)

## C=CC(=O)N1CC[C@H](COc2cc(-c3ccc(O)c(Cl)c3)cc3[nH]ncc23)C1 [Compound 2-3]
Tyk2
  Tyk 2 (pKi): E (a pKi value of 7 or below (Ki of 100 nM or above))
JAK1
  JAK 1 (pKi): E (a pKi value of 7 or below (Ki of 100 nM or above))
JAK2
  JAK 2 (pKi): D (a pKi value between 7 and 8 (Ki between 100 nM and 10 nM))
[1]; [4]
  Tall-1 (pIC50): B (a pIC50 value between 6.7 (included) and 7.5 (IC50 between 200 nM and 32 nM))
JAK3
  JAK 3 (pKi): B (a pKi value between 9 and 10 (Ki between 1 nM and 0.1 nM))
JAK3; [3]
  JAK3 (pKi)-JAK1 (pKi): A (a value of 3 or above)

## C=CC(=O)N1CC[C@@H](Oc2cc(-c3ccc(O)cc3)cc3[nH]ncc23)C[C@@H]1C [Compound 12-30]
Tyk2
  Ki: > 100 nM
JAK1
  Ki: > 100 nM
JAK2
  Ki: 1 to 10 nM
[1]; [7]
  IC50: < 31.6 nM
JAK3
  Ki: < 0.1 nM
JAK3; [6]
  JAK3 (pKi)-JAK1 (pKi): A (a value of 3 or above)

## CCC1(COc2cc(-c3ccc(O)c(Cl)c3)nc3[nH]ncc23)CN(C(=O)/C=C/CN(C)C)C1 [Compound 3-68]
Tyk2
  Tyk 2 (pKi): E (a pKi value of 7 or below (Ki of 100 nM or above))
JAK1
  JAK 1 (pKi): D (a pKi value between 7 and 8 (Ki between 100 nM and 10 nM))
JAK2
  JAK 2 (pKi): E (a pKi value of 7 or below (Ki of 100 nM or above))
[1]; [4]
  Tall-1 (pIC50): C (a pIC50 value between 6 and 6.7 (IC50 between 1 μM and 200 nM))
JAK3
  JAK 3 (pKi): B (a pKi value between 9 and 10 (Ki between 1 nM and 0.1 nM))
JAK3; [3]
  JAK3 (pKi)-JAK1 (pKi): B (a value of 2.3 to 3)

## C=CC(=O)N1CCS(=O)(=O)C(C(=O)Nc2cc(-c3ccc(O)cc3)cc3[nH]ncc23)C1 (stereo not drawn) [Compound 12-45]
Tyk2
  Ki: > 100 nM
JAK1
  Ki: > 100 nM
JAK2
  Ki: > 100 nM
[1]; [7]
  IC50: 200 to 1000 nM
JAK3
  Ki: < 0.1 nM
JAK3; [6]
  JAK3 (pKi)-JAK1 (pKi): A (a value of 3 or above)

## C=CC(=O)N1CC(COc2cc(-c3ccc(O)cc3)cc3[nH]nc(SC)c23)C1 [Compound 18-10]
Tyk2
  Ki: > 100 nM
JAK1
  Ki: > 100 nM
JAK2
  Ki: 10 to 100 nM
[1]; [7]
  IC50: 31.6 to 200 nM
JAK3
  Ki: < 0.1 nM
JAK3; [6]
  JAK3 (pKi)-JAK1 (pKi): A (a value of 3 or above)

## C=CC(=O)N1CC[C@H](Oc2cc(-c3ccc(O)cc3)cc3[nH]nc(OC)c23)C1 [Compound 1-44]
Tyk2
  Ki: > 100 nM
JAK1
  Ki: > 100 nM
JAK2
  Ki: > 100 nM
[1]; [2]
  IC50: < 31.6 nM
JAK3
  Ki: < 0.1 nM
JAK3; [3]
  JAK3 (pKi)-JAK1 (pKi): A (a value of 3 or above)

## CCSCCNC/C=C/C(=O)N1CC(COc2cc(-c3ccc(O)cc3)cc3[nH]ncc23)C1 [Compound 3-126]
Tyk2
  Ki: > 100 nM
JAK1
  Ki: > 100 nM
JAK2
  Ki: 10 to 100 nM
[1]; [2]
  IC50: 200 to 1000 nM
JAK3
  Ki: < 0.1 nM
JAK3; [3]
  JAK3 (pKi)-JAK1 (pKi): A (a value of 3 or above)

## C=CC(=O)N1CC(Oc2cc(-c3ccc(O)cc3)cc3[nH]ncc23)C1 [Compound 5-2]
Tyk2
  Tyk 2 (pKi): E (a pKi value of 7 or below (Ki of 100 nM or above))
JAK1
  JAK 1 (pKi): E (a pKi value of 7 or below (Ki of 100 nM or above))
JAK2
  JAK 2 (pKi): E (a pKi value of 7 or below (Ki of 100 nM or above))
[1]; [4]
  Tall-1 (pIC50): B (a pIC50 value between 6.7 (included) and 7.5 (IC50 between 200 nM and 32 nM))
JAK3
  JAK 3 (pKi): B (a pKi value between 9 and 10 (Ki between 1 nM and 0.1 nM))
JAK3; [3]
  JAK3 (pKi)-JAK1 (pKi): A (a value of 3 or above)
